Measured values as given in US6469028B1, “Synthesis and use of retinoid compounds having negative hormone and/or anatgonist activities” (Allergan, Inc., priority 1995, dated 2002).

What was measured:
RARβ = target: T1, RARβ (Homo sapiens, UniProt P10826); experiment: Transactivation in CV-1 cells, ΔMTV-TREp-Luc reporter; type: cell-based; parameters: expressed in transfected cells; host or cells: green monkey CV-1 cells; conditions: 10^−9 to 10^−6 M, 18 hours
T1 sequence (P10826 1-448 isoform P10826-2): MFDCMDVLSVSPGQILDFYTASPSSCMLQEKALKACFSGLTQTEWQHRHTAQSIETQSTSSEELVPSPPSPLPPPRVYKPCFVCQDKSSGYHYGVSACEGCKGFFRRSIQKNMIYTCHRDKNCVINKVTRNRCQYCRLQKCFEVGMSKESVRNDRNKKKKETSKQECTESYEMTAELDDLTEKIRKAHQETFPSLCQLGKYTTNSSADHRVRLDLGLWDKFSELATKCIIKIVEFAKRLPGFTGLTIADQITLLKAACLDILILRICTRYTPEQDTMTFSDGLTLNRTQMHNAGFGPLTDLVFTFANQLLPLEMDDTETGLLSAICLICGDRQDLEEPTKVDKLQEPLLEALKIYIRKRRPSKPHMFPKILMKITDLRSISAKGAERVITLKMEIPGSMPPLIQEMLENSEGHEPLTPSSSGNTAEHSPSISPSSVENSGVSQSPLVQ
Method: (§1) AGN 193109 was also tested for its ability to transactivate RARs in CV-1 cells transiently cotransfected with RAR expression vectors and a retinoid responsive reporter gene construct. Receptor expression vectors pRShRAR-α (Giguere et al. Nature 330:624 (1987)), pRShRAR-β (Benbrook et al. Nature 333:669 (1988)) and pRShRAR-γ (Ishikawa et al. Mol. Endocrinol. 4:837 (1990)) were separately cotransfected with the ΔMTV-TREp-Luc reporter plasmid. Use of this luciferase reporter plasmid has been disclosed by Heyman et al. in Cell 68:397 (1992). The ΔMTV-TREp-Luc plasmid is essentially identical to the ΔMTV-TREp-CAT reporter construct described by Umesono et al. in Nature 336:262 (1988), except that the chloramphenicol acetyltransferase (CAT) reporter gene was substituted by a polynucleotide sequence encoding firefly luciferase. Transfection of green monkey CV-1 cells was carried out using the calcium phosphate coprecipitation method described in Molecular Cloning: A Laboratory Manual (Sambrook et al. eds. Cold Spring Harbor Lab Publ. 1989). CV-1 cells were plated at a density of 4×10^4/well in 12 well multiwell plates and transiently transfected with a calcium phosphate precipitate containing 0.7 μg of reporter plasmid and 0.1 μg of receptor plasmid according to standard laboratory procedures. […]

RARα = target: T2, RARα (Homo sapiens, UniProt P10276); experiment: as above; type: cell-based; parameters: expressed in transfected cells; host or cells: green monkey CV-1 cells; conditions: 10^−9 to 10^−6 M, 18 hours
T2 sequence (P10276 1-462): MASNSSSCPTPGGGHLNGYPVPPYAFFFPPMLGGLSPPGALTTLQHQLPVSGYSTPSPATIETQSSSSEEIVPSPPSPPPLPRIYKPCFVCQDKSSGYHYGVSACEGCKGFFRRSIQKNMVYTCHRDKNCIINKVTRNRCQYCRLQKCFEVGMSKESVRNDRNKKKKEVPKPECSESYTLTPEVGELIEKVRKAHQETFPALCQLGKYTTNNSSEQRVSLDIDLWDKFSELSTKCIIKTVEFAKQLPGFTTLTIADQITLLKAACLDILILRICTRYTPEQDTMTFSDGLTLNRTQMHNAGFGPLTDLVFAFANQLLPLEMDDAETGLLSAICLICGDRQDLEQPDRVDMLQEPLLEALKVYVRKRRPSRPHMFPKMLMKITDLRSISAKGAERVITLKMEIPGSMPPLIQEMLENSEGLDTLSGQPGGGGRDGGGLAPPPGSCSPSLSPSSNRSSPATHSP
Method: as §1

[1] = test system: MRP-8 expression in primary foreskin keratinocytes; experiment: Example 20: MRP-8 expression in keratinocytes (RT-PCR); type: cell-based, human; conditions: AGN 191183 10^−7 M or AGN 193109 10^−6 M, 3 days
Description: Primary foreskin keratinocytes were isolated according to the procedure described by Nagpal et al. in J. Biol. Chem. 270:923 (1995) and cultured in keratinocyte growth medium (KGM) that was purchased from Clonetics. […] The mRNA was reverse transcribed into cDNA which then served as the template in a PCR amplification protocol using primers specific for either the glyceraldehyde phosphate dehydrogenase (GAPDH) housekeeping gene or MRP-8. The GAPDH primers had the sequences [NT] ID NO:6) and [NT] ID NO:7). The MRP-8 primers had the sequences [NT] ID NO:8) and [NT] ID NO:9). An aliquot from the MRP-8 amplification reaction (10 μl) was removed after every cycle of PCR amplification starting from 12 cycles and ending at 21 cycles. Similarly, an aliquot of the GAPDH amplification reaction was removed after every PCR cycle starting at 15 cycles and ending at 24 cycles. […] The staining intensity of the amplification products served as a quantitative measure of the amount of starting MRNA specific for the given primer set.

[2] = test system: cultured cervical carcinoma cells; experiment: Example 23: cultured cervical carcinoma cells from a patient biopsy; type: cell-based; conditions: 10^−10 to 10^−6 M
Description: A patient presenting with an advanced cervical carcinoma is first identified. A cervical biopsy is obtained according to methods that will be familiar to one having ordinary skill in the art. Cells from the explanted tumor are propagated in tissue culture according to standard techniques to provide cell numbers sufficient to allow division into three sample groups. Culture conditions described by Agarwal et al. in Cancer Res. 54:2108 (1994) are employed for this purpose. The first group is reserved as a control and receives vehicle alone (ethanol). The second group is treated with the RAR agonist retinoic acid at a concentration of from 10^−10 to 10^−6 M. The third group is treated with AGN 193109 at doses ranging from 10^−10 to 10^−6 M. Cells are fed with fresh growth medium daily and are provided with the retinoids described above as appropriate for each sample group. Cells are counted after three days using an electric cell counter.

## Cc1ccc(C2=CCC(C)(C)c3ccc(C#Cc4ccc(C(=O)O)cc4)cc32)cc1 [Compound 60, 4-[(5,6-dihydro-5,5-dimethyl-8-(4-methylphenyl)-2-naphthalenyl)ethynyl]benzoic acid]
RARβ
  EC50 (nM) RAR-β: No Activity
RARα
  EC50 (nM) RAR-α: No Activity
[1]
  MRP-8 mRNA expression: repressed MRP8 expression
[2]
  cell number after three days: dose-dependent decrease in cell number
